The data set in a line: Oral bioavailability study of berberine formulation versus unformulated berberine (berberine concentration in serum). It is filed as in vivo, Sprague Dawley rats. The conditions noted are these: Sprague Dawley, rat. The procedure: The study was conducted to evaluate the bioavailability of orally administered curcuminoid compositions (Table 1 and Example. 2), formulated using a synergistic combination of lecithin and lysolecithin in Sprague Dawley rats. Compositions formulated with lecithin or lysolecithin alone were also tested along with Meriva (Batch No FG-6558). These formulations were prepared using similar procedure described in examples 2 and 3. Total of twelve (12) animals were divided into four groups having three animals in each group. The test substances were administered orally to the animals via oral gavage once at 125 mg/Kg body weight active ingredient equivalent to Active ingredient. Pre-dose or 0th time blood samples were collected from all the animals before dosing the test substance, followed by blood sampling at 0.15, 0.5, 1, 1.5, 2, 4, 8, 12 and 24 hrs after dosing the test substance by sinus orbital plexus under anesthesia. Serum was separated from blood by centrifugation and was subjected to LC-MS/MS analysis for estimation of curcumin concentration in serum samples.
The similar protocol was used for the evaluation of oral bio-availability of berberine formulation (Example. 3) in comparison with the unformulated berberine and for estimation of berberine concentration in serum samples. The berberine compound and its formulations were supplemented to the animals at a dose equivalent to 100 mg/kg bodyweight of active Berberine.

Read-outs that look alike come from different tables or passages of the source.

Take `COc1ccc2cc3[n+](cc2c1OC)CCc1cc2c(cc1-3)OCO2` [LI32001, Berberine]: the AUC(0-t) (serum, 100 mg/kg bodyweight of active Berberine, single oral administration, read-out: Oral exposures (AUClast)) was 23.7 ± 7.99 ng·h/mL and the AUC(0-t) (rats, single oral dose equivalent to 100 mg/kg BW berberine, berberine in serum, 6 animals, read-out: AUClast (0-24 h)) stood at 23.7 ± 7.99 ng·h/mL. Moreover, the Cmax (rats, single oral dose equivalent to 100 mg/kg BW berberine, berberine in serum, 6 animals) worked out at 4.2 ± 1.85 ng/mL.

Source of the values: US20160015813A1, “NOVEL AND SYNERGISTIC COMPOSITION OF LECITHIN AND LYSOLECITHIN FOR IMPROVING BIOAVAILABILITY AND SOLUBILITY OF HYDROPHOBIC COMPOUNDS AND EXTRACTS” (priority 2014, published 2016).
